Laboratory results reported in patent publication US20230257396A1, “MACROCYCLES AND THEIR USE” (BLOSSOMHILL THERAPEUTICS, INC., priority 2020, published 2023).
One block for each compound: values may come before it.

Columns and labels:
Test in all cases: KINOMEscan kinase binding assay (Eurofins/DiscoveRx), % Ctrl
[1] = molecular target: T1, kinases (Homo sapiens, UniProt P07949, M918T)
T1 construct: purchased Eurofins/DiscoveRx; host or cells: E. coli BL21-derived host (T7 phage display) for most kinases; HEK-293 for the rest
T1 sequence (P07949 29-1114 M918T): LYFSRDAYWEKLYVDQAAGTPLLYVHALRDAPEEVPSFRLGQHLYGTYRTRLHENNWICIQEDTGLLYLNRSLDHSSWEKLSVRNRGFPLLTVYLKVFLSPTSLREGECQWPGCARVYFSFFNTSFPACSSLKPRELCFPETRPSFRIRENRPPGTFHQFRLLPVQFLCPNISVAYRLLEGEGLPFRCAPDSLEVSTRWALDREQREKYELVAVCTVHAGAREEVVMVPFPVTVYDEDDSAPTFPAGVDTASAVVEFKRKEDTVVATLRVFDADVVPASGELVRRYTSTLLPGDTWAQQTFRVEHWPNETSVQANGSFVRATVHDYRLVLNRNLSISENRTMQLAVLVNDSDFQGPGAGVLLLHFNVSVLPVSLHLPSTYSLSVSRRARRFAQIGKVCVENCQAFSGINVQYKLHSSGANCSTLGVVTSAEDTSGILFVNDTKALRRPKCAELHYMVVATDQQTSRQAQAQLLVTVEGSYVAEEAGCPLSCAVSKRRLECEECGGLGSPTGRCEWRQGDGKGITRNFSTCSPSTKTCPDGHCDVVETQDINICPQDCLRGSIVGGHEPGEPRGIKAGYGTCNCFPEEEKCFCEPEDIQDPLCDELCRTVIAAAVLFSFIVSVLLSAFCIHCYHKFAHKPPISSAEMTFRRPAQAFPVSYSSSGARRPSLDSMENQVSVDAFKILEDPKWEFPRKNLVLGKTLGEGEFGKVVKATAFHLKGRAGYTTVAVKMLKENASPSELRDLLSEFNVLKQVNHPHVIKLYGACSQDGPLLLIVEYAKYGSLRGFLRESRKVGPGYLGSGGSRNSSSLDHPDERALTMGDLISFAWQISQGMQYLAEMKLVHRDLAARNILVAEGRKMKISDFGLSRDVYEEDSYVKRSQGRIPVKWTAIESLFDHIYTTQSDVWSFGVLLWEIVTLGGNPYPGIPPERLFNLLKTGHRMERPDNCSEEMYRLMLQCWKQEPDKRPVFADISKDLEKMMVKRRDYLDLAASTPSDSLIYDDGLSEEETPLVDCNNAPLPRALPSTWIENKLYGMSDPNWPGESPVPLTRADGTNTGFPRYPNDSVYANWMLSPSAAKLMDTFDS
Procedure, shortened: (§1)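 Read-out is qPCR of kinase eluted from ligand-coated streptavidin beads after 1 h room-temperature competition with test compound. Values are % Ctrl at the tested concentration, lower meaning tighter binding.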

[2] = molecular target: T2, kinases (Homo sapiens, UniProt P00519, H396P)
T2 construct: purchased Eurofins/DiscoveRx; host or cells: E. coli BL21-derived host (T7 phage display) for most kinases; HEK-293 for the rest
Procedure, shortened: as §1

[3] = molecular target: T3, kinases (Homo sapiens, UniProt P10721, V559D/V654A)
T3 construct: purchased Eurofins/DiscoveRx; host or cells: E. coli BL21-derived host (T7 phage display) for most kinases; HEK-293 for the rest
T3 sequence (P10721 26-976 V559D/V654A): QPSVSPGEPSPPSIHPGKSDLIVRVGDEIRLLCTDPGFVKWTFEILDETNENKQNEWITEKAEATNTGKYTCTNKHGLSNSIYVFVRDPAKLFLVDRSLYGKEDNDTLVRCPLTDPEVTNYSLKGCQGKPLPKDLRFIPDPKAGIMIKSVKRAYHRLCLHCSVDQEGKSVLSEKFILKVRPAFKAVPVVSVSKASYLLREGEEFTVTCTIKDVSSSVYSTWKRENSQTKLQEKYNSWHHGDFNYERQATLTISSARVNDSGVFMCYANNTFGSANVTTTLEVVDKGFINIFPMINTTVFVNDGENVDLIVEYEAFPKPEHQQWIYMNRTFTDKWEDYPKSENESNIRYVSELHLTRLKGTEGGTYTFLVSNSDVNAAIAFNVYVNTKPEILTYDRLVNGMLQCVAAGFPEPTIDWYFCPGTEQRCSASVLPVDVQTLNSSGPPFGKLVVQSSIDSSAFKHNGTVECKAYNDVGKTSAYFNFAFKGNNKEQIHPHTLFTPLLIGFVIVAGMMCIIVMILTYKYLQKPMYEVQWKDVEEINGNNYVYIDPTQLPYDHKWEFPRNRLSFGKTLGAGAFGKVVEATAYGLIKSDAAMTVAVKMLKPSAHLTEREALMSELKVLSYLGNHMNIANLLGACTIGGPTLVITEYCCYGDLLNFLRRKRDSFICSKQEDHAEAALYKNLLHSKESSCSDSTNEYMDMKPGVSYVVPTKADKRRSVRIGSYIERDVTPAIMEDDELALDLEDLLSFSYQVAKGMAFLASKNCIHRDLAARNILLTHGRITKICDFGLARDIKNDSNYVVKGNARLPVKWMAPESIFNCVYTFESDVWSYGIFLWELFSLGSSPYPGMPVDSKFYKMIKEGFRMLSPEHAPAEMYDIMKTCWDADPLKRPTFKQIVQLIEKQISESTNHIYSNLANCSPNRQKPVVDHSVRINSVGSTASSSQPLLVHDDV
Procedure, shortened: as §1

[4] = molecular target: T4, kinases (Homo sapiens, UniProt P00533, L858R/T790M)
T4 construct: purchased Eurofins/DiscoveRx; host or cells: E. coli BL21-derived host (T7 phage display) for most kinases; HEK-293 for the rest
Procedure, shortened: as §1

[5] = molecular target: T5, kinases (Homo sapiens, UniProt P00533, L861Q)
T5 construct: purchased Eurofins/DiscoveRx; host or cells: E. coli BL21-derived host (T7 phage display) for most kinases; HEK-293 for the rest
Procedure, shortened: as §1

[6] = molecular target: T6, kinases (Homo sapiens, UniProt P10721, L576P)
T6 construct: purchased Eurofins/DiscoveRx; host or cells: E. coli BL21-derived host (T7 phage display) for most kinases; HEK-293 for the rest
T6 sequence (P10721 26-976 L576P): as the sequence (P10721 26-976 V559D/V654A) above, with D534V, L551P, A629V counted along it
Procedure, shortened: as §1

[7] = molecular target: T7, kinases (Homo sapiens, UniProt P07949, V804L)
T7 construct: purchased Eurofins/DiscoveRx; host or cells: E. coli BL21-derived host (T7 phage display) for most kinases; HEK-293 for the rest
T7 sequence (P07949 29-1114 V804L): as the sequence (P07949 29-1114 M918T) above, with V776L, T890M counted along it
Procedure, shortened: as §1

[8] = molecular target: T8, kinases (Homo sapiens, UniProt P00519)
T8 construct: purchased Eurofins/DiscoveRx; host or cells: E. coli BL21-derived host (T7 phage display) for most kinases; HEK-293 for the rest
Procedure, shortened: as §1

[9] = molecular target: T9, kinases (Homo sapiens, UniProt P00533, L858R)
T9 construct: purchased Eurofins/DiscoveRx; host or cells: E. coli BL21-derived host (T7 phage display) for most kinases; HEK-293 for the rest
Procedure, shortened: as §1

[10] = molecular target: T10, kinases (Homo sapiens, UniProt P00519, Y253F)
T10 construct: purchased Eurofins/DiscoveRx; host or cells: E. coli BL21-derived host (T7 phage display) for most kinases; HEK-293 for the rest
Procedure, shortened: as §1

[11] = molecular target: T11, kinases (Homo sapiens, UniProt P00519, F317I)
T11 construct: purchased Eurofins/DiscoveRx; host or cells: E. coli BL21-derived host (T7 phage display) for most kinases; HEK-293 for the rest
Procedure, shortened: as §1

[12] = molecular target: T12, kinases (Homo sapiens, UniProt P35916)
T12 construct: purchased Eurofins/DiscoveRx; host or cells: E. coli BL21-derived host (T7 phage display) for most kinases; HEK-293 for the rest
T12 sequence (P35916 25-1363): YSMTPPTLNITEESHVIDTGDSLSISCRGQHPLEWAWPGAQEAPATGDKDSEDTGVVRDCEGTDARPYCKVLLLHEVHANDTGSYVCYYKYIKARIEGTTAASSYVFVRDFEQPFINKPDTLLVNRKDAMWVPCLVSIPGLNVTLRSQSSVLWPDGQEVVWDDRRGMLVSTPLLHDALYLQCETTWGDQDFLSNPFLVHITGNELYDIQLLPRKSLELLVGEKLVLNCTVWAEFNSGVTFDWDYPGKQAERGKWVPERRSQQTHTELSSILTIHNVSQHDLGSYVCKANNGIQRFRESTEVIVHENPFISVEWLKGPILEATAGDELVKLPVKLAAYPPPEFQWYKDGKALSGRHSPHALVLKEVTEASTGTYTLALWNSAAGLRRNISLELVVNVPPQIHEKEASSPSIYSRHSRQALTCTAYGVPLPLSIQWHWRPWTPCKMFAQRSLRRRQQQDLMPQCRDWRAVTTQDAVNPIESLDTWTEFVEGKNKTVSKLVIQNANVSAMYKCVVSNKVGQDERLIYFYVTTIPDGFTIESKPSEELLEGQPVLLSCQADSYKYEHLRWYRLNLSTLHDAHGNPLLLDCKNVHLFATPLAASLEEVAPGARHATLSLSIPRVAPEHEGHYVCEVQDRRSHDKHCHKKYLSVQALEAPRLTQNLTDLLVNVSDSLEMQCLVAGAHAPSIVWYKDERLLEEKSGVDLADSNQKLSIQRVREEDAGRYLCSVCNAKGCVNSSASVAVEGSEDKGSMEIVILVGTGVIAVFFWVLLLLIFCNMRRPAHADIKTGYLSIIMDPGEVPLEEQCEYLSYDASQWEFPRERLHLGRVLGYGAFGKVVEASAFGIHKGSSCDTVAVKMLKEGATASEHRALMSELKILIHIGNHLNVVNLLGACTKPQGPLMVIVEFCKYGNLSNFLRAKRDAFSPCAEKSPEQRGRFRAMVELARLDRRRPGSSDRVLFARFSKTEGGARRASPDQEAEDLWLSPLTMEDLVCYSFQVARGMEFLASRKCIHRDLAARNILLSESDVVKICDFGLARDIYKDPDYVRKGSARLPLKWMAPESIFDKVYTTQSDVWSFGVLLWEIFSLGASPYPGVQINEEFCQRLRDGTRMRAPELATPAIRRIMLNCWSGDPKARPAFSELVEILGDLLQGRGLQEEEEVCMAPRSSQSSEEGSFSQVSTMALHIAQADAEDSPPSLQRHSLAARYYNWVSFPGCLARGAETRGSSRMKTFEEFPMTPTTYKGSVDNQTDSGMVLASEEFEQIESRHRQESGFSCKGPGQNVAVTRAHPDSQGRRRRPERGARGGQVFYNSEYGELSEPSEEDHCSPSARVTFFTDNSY
Procedure, shortened: as §1

[13] = molecular target: T13, kinases (Homo sapiens, UniProt P09619)
T13 construct: purchased Eurofins/DiscoveRx; host or cells: E. coli BL21-derived host (T7 phage display) for most kinases; HEK-293 for the rest
T13 sequence (P09619 33-1106): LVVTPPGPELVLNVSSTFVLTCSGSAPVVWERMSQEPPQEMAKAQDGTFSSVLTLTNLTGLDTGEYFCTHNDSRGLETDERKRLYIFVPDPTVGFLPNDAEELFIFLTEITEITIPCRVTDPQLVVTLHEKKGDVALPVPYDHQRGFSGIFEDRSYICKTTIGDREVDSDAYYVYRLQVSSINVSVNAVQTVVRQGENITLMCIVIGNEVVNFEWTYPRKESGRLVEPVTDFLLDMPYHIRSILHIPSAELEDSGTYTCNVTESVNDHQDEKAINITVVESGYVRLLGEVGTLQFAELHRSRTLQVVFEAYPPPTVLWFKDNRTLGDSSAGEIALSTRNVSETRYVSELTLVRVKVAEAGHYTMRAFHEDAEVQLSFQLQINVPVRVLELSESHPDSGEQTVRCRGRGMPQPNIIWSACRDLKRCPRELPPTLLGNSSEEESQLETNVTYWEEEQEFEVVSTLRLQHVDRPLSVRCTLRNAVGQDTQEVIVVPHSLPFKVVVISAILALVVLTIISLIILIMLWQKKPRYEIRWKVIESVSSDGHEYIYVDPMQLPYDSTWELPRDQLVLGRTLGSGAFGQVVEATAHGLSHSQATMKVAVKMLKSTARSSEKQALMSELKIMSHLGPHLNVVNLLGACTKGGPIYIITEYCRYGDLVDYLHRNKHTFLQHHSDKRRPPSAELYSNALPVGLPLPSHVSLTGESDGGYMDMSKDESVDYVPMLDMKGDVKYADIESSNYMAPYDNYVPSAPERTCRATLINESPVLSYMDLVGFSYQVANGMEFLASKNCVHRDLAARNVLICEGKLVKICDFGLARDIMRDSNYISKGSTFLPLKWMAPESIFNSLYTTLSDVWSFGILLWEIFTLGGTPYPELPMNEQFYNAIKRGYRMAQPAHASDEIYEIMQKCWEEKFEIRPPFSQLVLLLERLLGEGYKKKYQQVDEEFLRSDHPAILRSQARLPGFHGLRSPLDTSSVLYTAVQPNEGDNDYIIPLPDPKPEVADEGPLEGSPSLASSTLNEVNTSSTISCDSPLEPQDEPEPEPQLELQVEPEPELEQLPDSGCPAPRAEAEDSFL
Procedure, shortened: as §1

[14] = molecular target: T14, kinases (Homo sapiens, UniProt P00533)
T14 construct: purchased Eurofins/DiscoveRx; host or cells: E. coli BL21-derived host (T7 phage display) for most kinases; HEK-293 for the rest
Procedure, shortened: as §1

[15] = molecular target: T15, kinases (Homo sapiens, UniProt P36888)
T15 construct: purchased Eurofins/DiscoveRx; host or cells: E. coli BL21-derived host (T7 phage display) for most kinases; HEK-293 for the rest
T15 sequence (P36888 27-993): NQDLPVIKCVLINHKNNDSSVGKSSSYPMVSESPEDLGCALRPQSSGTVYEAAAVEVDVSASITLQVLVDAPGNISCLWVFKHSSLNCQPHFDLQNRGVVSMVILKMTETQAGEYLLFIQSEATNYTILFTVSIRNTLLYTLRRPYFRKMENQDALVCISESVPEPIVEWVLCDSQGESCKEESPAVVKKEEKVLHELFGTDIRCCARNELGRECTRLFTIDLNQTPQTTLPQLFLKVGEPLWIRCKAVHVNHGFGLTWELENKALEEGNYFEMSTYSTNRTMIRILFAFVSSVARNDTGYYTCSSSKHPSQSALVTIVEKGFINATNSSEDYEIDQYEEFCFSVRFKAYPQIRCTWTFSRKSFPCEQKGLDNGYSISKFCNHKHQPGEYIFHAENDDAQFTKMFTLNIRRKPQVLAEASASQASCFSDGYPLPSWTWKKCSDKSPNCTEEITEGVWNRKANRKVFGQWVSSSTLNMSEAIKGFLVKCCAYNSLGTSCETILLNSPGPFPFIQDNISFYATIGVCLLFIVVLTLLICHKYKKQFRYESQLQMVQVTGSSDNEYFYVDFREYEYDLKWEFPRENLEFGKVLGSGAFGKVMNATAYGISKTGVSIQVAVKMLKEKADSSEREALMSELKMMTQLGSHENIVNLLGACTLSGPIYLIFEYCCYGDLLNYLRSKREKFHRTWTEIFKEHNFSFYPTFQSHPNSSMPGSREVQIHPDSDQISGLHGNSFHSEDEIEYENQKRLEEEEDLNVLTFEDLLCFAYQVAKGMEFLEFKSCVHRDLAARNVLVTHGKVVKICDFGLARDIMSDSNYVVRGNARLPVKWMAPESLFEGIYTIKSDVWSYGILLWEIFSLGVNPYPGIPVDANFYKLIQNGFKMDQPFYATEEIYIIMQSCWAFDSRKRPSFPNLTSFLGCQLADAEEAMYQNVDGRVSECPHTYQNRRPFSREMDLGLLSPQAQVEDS
Procedure, shortened: as §1

% Ctrl, RET(M918T) ([1]; target RET(M918T); 1 μM): 41 % Ctrl | % Ctrl, ABL1(H396P)-nonphosphorylated ([2]; target ABL1(H396P)-nonphosphorylated; 1 μM): 2 % Ctrl | % Ctrl, ABL1(H396P)-phosphorylated ([2]; target ABL1(H396P)-phosphorylated; 1 μM): 9.5 % Ctrl | % Ctrl, KIT(V559D, V654A) ([3]; target KIT(V559D, V654A); 1 μM): 75 % Ctrl | % Ctrl, EGFR(L858R, T790M) ([4]; target EGFR(L858R, T790M); 1 μM): 17 % Ctrl | % Ctrl, EGFR(L861Q) ([5]; target EGFR(L861Q); 1 μM): 88 % Ctrl | % Ctrl, KIT(L576P) ([6]; target KIT(L576P); 1 μM): 84 % Ctrl | % Ctrl, RET(V804L) ([7]; target RET(V804L); 1 μM): 15 % Ctrl | % Ctrl, ABL1-nonphosphorylated ([8]; target ABL1-nonphosphorylated; 1 μM): 17 % Ctrl | % Ctrl, ABL1-phosphorylated ([8]; target ABL1-phosphorylated; 1 μM): 9.8 % Ctrl | % Ctrl, EGFR(L858R) ([9]; target EGFR(L858R); 1 μM): 80 % Ctrl | % Ctrl, ABL1(Y253F)-phosphorylated ([10]; target ABL1(Y253F)-phosphorylated; 1 μM): 11 % Ctrl | % Ctrl, ABL1(F317I)-nonphosphorylated ([11]; target ABL1(F317I)-nonphosphorylated; 1 μM): 72 % Ctrl | % Ctrl, ABL1(F317I)-phosphorylated ([11]; target ABL1(F317I)-phosphorylated; 1 μM): 60 % Ctrl | % Ctrl, FLT4 ([12]; target FLT4; 1 μM): 23 % Ctrl | % Ctrl, PDGFRB ([13]; target PDGFRB; 1 μM): 73 % Ctrl | % Ctrl, EGFR ([14]; target EGFR; 1 μM): 94 % Ctrl | % Ctrl, FLT3-autoinhibited ([15]; target FLT3-autoinhibited; 1 μM): 67 % Ctrl | % Ctrl, FLT3 ([15]; target FLT3; 1 μM): 33 % Ctrl
SMILES: Cc1cc2c([nH]1)/C=C1\C(=O)Nc3ccc(cc31)-c1c(noc1C)CNCCN(C)C2=O [Ex. 139, [3a(4)Z]-6,9,16-trimethyl-10,11,12,13-tetrahydro-2H-1,17-(ethanediylidene)[1,2]oxazolo[4,3-m]dipyrrolo[3,2-f:3′,4′-i][1,4]diazacyclopentadecine-3,8(5H,9H)-dione]

% Ctrl, RET(M918T) ([1]; 1 μM; target RET(M918T)): 92 % Ctrl | % Ctrl, ABL1(H396P)-nonphosphorylated ([2]; 1 μM; target ABL1(H396P)-nonphosphorylated): 91 % Ctrl | % Ctrl, ABL1(H396P)-phosphorylated ([2]; 1 μM; target ABL1(H396P)-phosphorylated): 100 % Ctrl | % Ctrl, KIT(V559D, V654A) ([3]; 1 μM; target KIT(V559D, V654A)): 87 % Ctrl | % Ctrl, EGFR(L858R, T790M) ([4]; 1 μM; target EGFR(L858R, T790M)): 96 % Ctrl | % Ctrl, EGFR(L861Q) ([5]; 1 μM; target EGFR(L861Q)): 100 % Ctrl | % Ctrl, KIT(L576P) ([6]; 1 μM; target KIT(L576P)): 100 % Ctrl | % Ctrl, RET(V804L) ([7]; 1 μM; target RET(V804L)): 72 % Ctrl | % Ctrl, ABL1-nonphosphorylated ([8]; 1 μM; target ABL1-nonphosphorylated): 100 % Ctrl | % Ctrl, ABL1-phosphorylated ([8]; 1 μM; target ABL1-phosphorylated): 97 % Ctrl | % Ctrl, EGFR(L858R) ([9]; 1 μM; target EGFR(L858R)): 100 % Ctrl | % Ctrl, ABL1(Y253F)-phosphorylated ([10]; 1 μM; target ABL1(Y253F)-phosphorylated): 78 % Ctrl | % Ctrl, ABL1(F317I)-nonphosphorylated ([11]; 1 μM; target ABL1(F317I)-nonphosphorylated): 100 % Ctrl | % Ctrl, ABL1(F317I)-phosphorylated ([11]; 1 μM; target ABL1(F317I)-phosphorylated): 91 % Ctrl | % Ctrl, FLT4 ([12]; 1 μM; target FLT4): 79 % Ctrl | % Ctrl, PDGFRB ([13]; 1 μM; target PDGFRB): 98 % Ctrl | % Ctrl, EGFR ([14]; 1 μM; target EGFR): 73 % Ctrl | % Ctrl, FLT3 ([15]; 1 μM; target FLT3): 100 % Ctrl | % Ctrl, FLT3-autoinhibited ([15]; 1 μM; target FLT3-autoinhibited): 100 % Ctrl
SMILES: Cc1cc2c([nH]1)/C=C1\C(=O)Nc3ccc(cc31)-c1c(noc1C(C)C)COCCN(C)C2=O [Ex. 161, [3a(4)Z]-9-methyl-16-(propan-2-yl)-10,11-dihydro-2H,13H-1,17-(ethanediylidene)[1,2]oxazolo[4,3-m]dipyrrolo[3,2-f:3′,4′-i][1,4]oxazacyclopentadecine-3,8(5H,9H)-dione]
